Earlier results as cited in patent publication US10980860B2, “Diagnosis, prevention and treatment of diseases of the joint” (Ascendis Pharma A/S, priority 2012, dated 2021).

Tested on: osteoarthritis
Details: injection into the joint; Chevalier et al, J. Rheumatol 32 (2005); cited from earlier work

Question: Which “Reduction of symptoms of osteoarthritis” value does the source give for “IL-1ra: IL-1ra (Anakinra, Kineret®, Swedish Orphan Biovitrum AB)” here?
Answer: Its value is “not significantly reducing the symptoms of osteoarthritis”.
